For assay [1], the system named is embolic strokes in rabbits. Briefly: rabbit small clot embolic stroke model (RSCEM). The format is in vivo. From the text: The ability of polyphenol analogs to treat, prevent and/or mitigate one or more symptoms of stroke can also be evaluated in in vivo assays. Such assays are known in the art and find use. One applicable in vivo screening assay is the rabbit clot embolic stroke model, discussed, e.g., in Lapchak, et al., Stroke (2002) 33(9):2279-84 and Lapchak, Exp Neurol. (2007) 205(2):407-13. The rabbit small clot embolic stroke model (RSCEM) and rabbit large clot embolic stroke model (RLCEM) can be used to determine the potential neuroprotective properties and safety profile of test polyphenol analogs after an embolic stroke. Rabbits are embolized by injecting small blood clots (RSCEM) or large blood clots (RLCEM) into the cerebral circulation. Behavioral analysis is conducted 24 hours later, allowing for determination of the effective stroke dose (ES50) or clot amount (milligrams) that produces severe neurological deficits in 50% of rabbits. A drug is considered neuroprotective if it increases the ES50 compared with the vehicle-treated control group.
Either vehicle or bolus injections of chlorogenic acid were administered intravenously over 1 minute starting 5 minutes following embolization using a suspension of small-sized blood clots. In this series of studies, CGA was administered at 50 mg/kg. Behavioral analysis was conducted at 24 hours following treatment, which allowed for the construction of quantal dose-response analysis curves. […] For the superimposed graphs, normal animals are plotted on the y-axis at 0% and abnormal animals are plotted at 100%. […] Moreover, CGA increased the P50 value (the clot dose that produces abnormality in 50% of a treatment group) compared to vehicle control. For a detailed discussion of the methods used to fit the quantal data to a sigmoidal curve, see Zivin and Waud. The pharmacology of chlorogenic acid in the rabbit small clot embolic stroke model (RSCEM) has been published (Lapchak, Exp Neurol. 2007 205(2):407-13). In the manuscript, it is shown that CGA has a therapeutic window of 60 minutes in the RSCEM. FIG. 2 presents the therapeutic window data.
Using the RSCEM assay described above for CGA, the effects of Fisetin (50 mg/kg) on behavioral outcome measured 24 hours following embolization is tested.

Assay [2] has as its system embolic strokes in rabbits. The settings on record: RSCEM, as published in the manuscript; cited from earlier work.
The subject of another assay is PC12 cells. Kind of assay: glucose starvation assay. The format is cell-based. The settings on record: PC12 cells starved for glucose, MTT 24 hr. Here is the method:
FIG. 5C—PC12 cells were glucose-deprived then were incubates in the absence or presence of Baicalein. Cell viability was determined 24 hr later using the MTT assay. […] When these cells are starved for glucose, there is approximately 70% maximal survival in the presence of NGF. Baicalein promotes over 80% survival (FIG. 5C).

Like-named read-outs stand apart in the source and are kept apart here.

As for `O=C(/C=C/c1ccc(O)c(O)c1)O[C@@H]1C[C@](O)(C(=O)O)C[C@@H](O)[C@H]1O` [Chlorogenic Acid, 1,3,4,5-tetrahydroxy-cyclohexanecarboxylic acid 3-(3,4-dihydroxycinnamate)], the “behavior when administered 1 hour following embolization” value in assay [1] (1 hour following embolization) is “effective at improving behavior”. Moreover, in assay [1] (3 hours following embolization), the “behavior when administered 3 hours following embolization” value is given as “neither improve behavior”. Besides, the therapeutic window in assay [1] (time post-embolization, FIG. 2) was 60 min; in assay [2] it was 60 min.

For “NGF: NGF, comparator giving approximately 70% maximal survival of glucose-starved PC12 cells”, the survival result in the assay on PC12 cells is listed as “approximately 70%”.

These data come from US9744164B2, “Neuroprotective polyphenol analogs” (Salk Institute for Biological Studies, priority 2011, dated 2017).
